Laboratory results published in patent US12479847B2 (DANA-FARBER CANCER INSTITUTE, INC., priority 2019, dated 2025).

Legend:
Test in all cases: KINOMEscan (ScanMAX) kinase profiling
Type in all cases: binding
[1] = molecular target: T1, panel of 468 kinases (Homo sapiens, UniProt P27448); conditions: MARK3; 1 μM; read-out: % control
T1 construct: purchased KINOMEscan (ScanMAX) service

[2] = molecular target: T2, panel of 468 kinases (Homo sapiens, UniProt Q8TF76); conditions: HASPIN; 1 μM; read-out: % control
T2 construct: purchased KINOMEscan (ScanMAX) service
T2 sequence (Q8TF76 1-798): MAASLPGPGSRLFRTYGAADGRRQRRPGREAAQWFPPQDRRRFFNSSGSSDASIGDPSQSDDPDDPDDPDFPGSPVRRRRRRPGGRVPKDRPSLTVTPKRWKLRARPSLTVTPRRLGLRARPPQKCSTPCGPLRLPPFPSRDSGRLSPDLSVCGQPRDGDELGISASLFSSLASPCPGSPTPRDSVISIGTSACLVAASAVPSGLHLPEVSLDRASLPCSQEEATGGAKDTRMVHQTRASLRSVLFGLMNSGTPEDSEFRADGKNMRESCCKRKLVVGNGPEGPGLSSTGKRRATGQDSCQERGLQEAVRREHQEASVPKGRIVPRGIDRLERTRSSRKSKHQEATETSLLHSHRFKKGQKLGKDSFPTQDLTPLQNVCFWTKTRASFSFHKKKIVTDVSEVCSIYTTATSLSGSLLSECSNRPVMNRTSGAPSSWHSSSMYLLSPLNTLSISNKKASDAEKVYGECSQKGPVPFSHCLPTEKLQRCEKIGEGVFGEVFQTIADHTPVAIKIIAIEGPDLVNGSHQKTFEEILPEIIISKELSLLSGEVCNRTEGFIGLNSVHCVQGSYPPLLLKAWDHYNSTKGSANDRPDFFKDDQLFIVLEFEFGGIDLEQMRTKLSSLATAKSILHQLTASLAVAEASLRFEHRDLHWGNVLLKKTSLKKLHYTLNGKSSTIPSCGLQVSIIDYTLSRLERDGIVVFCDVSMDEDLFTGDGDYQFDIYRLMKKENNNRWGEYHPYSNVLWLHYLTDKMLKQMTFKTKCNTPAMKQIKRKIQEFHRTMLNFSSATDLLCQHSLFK

[3] = molecular target: T3, panel of 468 kinases (Homo sapiens, UniProt P42336, E545K); conditions: PIK3CA(E545K); 1 μM; read-out: % control
T3 construct: purchased KINOMEscan (ScanMAX) service
T3 sequence (P42336 whole entry E545K): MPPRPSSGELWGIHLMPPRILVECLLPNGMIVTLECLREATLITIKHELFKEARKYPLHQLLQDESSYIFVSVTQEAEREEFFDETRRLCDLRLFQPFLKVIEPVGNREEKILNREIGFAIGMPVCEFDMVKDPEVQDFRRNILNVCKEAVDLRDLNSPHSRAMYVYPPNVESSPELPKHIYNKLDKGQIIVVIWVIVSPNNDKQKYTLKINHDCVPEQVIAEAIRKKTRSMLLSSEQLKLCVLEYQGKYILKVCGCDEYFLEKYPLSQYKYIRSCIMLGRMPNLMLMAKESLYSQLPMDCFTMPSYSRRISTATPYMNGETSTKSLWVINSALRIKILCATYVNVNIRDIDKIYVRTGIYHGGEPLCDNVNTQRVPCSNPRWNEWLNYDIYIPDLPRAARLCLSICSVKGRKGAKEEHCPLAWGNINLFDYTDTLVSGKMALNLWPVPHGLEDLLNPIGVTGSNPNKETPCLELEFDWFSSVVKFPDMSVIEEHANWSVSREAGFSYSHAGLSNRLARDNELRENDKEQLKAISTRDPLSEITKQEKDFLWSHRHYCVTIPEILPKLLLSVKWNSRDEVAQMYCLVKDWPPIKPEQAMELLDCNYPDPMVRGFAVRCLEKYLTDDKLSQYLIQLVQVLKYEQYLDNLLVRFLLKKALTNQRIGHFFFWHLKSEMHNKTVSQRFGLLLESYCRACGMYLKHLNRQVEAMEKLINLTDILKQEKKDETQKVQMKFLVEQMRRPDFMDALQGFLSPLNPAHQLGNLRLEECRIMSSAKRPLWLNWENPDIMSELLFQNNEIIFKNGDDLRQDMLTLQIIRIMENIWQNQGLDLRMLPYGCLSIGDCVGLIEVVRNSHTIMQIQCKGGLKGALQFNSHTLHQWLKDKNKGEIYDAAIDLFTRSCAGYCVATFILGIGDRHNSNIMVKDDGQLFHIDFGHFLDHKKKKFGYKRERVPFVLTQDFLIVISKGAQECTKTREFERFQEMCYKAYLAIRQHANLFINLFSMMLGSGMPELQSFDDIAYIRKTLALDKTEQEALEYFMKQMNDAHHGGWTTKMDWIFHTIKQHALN

[4] = molecular target: T4, panel of 468 kinases (Homo sapiens, UniProt Q12851); conditions: MAP4K2; 1 μM; read-out: % control
T4 construct: purchased KINOMEscan (ScanMAX) service
T4 sequence (Q12851 1-820): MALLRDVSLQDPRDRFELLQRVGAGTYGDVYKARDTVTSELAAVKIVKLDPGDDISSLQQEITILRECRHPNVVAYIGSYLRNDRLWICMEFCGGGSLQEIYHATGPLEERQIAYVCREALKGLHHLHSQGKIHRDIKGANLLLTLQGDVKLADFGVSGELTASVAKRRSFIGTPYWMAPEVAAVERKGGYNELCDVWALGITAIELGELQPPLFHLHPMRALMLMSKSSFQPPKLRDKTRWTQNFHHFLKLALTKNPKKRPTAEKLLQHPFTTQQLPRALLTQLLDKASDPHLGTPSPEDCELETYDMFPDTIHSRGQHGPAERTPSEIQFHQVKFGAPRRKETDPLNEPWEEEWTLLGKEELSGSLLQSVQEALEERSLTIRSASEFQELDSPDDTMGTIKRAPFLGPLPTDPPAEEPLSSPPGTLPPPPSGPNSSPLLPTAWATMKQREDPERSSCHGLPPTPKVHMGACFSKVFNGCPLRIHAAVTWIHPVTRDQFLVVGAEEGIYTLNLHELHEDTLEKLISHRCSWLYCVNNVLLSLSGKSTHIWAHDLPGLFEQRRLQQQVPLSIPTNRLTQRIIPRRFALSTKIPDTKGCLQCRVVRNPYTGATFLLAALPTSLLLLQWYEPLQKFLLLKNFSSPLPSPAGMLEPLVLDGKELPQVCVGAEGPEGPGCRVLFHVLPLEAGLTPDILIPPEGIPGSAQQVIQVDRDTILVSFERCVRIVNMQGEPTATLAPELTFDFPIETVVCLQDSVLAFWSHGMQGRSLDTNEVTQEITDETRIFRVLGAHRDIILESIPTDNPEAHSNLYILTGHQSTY

[5] = molecular target: T5, panel of 468 kinases (Homo sapiens, UniProt Q16832); conditions: DDR2; 1 μM; read-out: % control
T5 construct: purchased KINOMEscan (ScanMAX) service
T5 sequence (Q16832 22-855): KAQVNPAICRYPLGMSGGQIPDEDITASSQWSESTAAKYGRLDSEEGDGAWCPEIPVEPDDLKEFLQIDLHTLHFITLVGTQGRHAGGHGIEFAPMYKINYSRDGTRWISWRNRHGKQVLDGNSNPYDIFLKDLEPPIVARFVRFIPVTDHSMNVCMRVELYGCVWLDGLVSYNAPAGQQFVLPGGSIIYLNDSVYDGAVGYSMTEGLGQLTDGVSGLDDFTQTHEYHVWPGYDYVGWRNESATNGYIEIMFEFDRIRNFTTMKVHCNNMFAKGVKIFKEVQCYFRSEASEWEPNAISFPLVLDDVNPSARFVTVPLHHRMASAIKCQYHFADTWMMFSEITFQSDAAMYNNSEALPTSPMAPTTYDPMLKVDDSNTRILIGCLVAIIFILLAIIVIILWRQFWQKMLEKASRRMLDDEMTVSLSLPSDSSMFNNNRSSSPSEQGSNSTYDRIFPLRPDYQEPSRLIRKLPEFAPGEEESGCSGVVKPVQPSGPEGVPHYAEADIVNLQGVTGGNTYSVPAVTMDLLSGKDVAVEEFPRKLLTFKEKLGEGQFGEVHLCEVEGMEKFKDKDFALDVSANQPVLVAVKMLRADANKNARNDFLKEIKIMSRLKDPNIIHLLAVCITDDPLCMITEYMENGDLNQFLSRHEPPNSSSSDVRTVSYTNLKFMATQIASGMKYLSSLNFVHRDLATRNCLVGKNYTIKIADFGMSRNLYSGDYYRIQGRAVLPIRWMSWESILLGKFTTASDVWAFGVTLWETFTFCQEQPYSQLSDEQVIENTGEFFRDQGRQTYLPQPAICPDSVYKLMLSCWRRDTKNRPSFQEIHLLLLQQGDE

T1 sequence (P27448 whole entry): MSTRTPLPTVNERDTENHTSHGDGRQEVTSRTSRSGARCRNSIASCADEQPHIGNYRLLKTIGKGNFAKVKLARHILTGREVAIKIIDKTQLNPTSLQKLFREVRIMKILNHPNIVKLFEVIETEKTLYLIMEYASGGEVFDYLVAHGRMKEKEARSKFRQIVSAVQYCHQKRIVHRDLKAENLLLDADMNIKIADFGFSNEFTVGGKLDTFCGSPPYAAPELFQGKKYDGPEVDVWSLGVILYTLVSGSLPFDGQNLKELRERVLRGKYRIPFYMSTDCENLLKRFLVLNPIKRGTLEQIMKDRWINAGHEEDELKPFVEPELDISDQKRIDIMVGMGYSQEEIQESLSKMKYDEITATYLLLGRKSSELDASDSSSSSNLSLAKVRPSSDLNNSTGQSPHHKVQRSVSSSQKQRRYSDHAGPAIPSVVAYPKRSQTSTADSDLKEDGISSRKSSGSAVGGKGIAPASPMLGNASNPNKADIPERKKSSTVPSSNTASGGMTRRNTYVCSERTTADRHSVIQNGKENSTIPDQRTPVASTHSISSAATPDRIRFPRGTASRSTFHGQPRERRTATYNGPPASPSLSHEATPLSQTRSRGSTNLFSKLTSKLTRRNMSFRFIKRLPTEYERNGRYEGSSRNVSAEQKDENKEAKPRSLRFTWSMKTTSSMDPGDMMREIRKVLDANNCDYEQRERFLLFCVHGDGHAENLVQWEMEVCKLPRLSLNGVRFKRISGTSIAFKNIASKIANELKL

SMILES	remaining binding at 1 µM [1]	remaining binding at 1 µM [2]	remaining binding at 1 µM [3]	remaining binding at 1 µM [4]	remaining binding at 1 µM [5]
CNc1nc(Nc2ccc(S(=O)(=O)N3CCC(N4CCOCC4)CC3)cc2OC)nc2[nH]cc(Cl)c12 [Compound 12, 5-chloro-N2-(2-methoxy-4-((4-morpholinopiperidin-1-yl)sulfonyl)phenyl)-N4-methyl-7H-pyrrolo[2,3-d]pyrimidine-2,4-diamine]	100%	29%	89%	61%	84%
CNc1nc(Nc2ccc(C(=O)N3CCC(N4CCOCC4)CC3)c3c2OCO3)nc2[nH]cc(Cl)c12 [Compound 75, (7-((5-chloro-4-(methylamino)-7H-pyrrolo[2,3-d]pyrimidin-2-yl)amino)benzo[d][1,3]dioxol-4-yl)(4-morpholinopiperidin-1-yl)methanone]	100%	25%	100%	6.2%	93%
CNc1nc(Nc2ccc(P3(=O)CCN(C4CCOCC4)CC3)cc2OC)nc2[nH]cc(Cl)c12 [Compound 77, 4-(4-((5-chloro-4-(methylamino)-7H-pyrrolo[2,3-d]pyrimidin-2-yl)amino)-3-methoxyphenyl)-1-(tetrahydro-2H-pyran-4-yl)-1,4-azaphosphinane 4-oxide]	100%	35%	94%	39%	84%
